From patent US20240158390A1, “OTHER HETEROAROMATIC COMPOUNDS HAVING ACTIVITY AGAINST RSV” (Janssen Sciences Ireland Unlimited Company, priority 2019, published 2024) come the findings set out here.

SMILES strings stand for the structures.

One data set is described as follows: in vitro. Format: cell-based. The following applies: human. How it is done: (§1) Black 384-well clear-bottom microtiter plates (Corning, Amsterdam, The Netherlands) were filled via acoustic drop ejection using the echo liquid handler (Labcyte, Sunnyvale, California). 200 nL of compound stock solutions (100% DMSO) were transferred to the assay plates. 9 serial 4-fold dilutions of compound were made, creating per quadrant the same compound concentration. The assay was initiated by adding 10 μL of culture medium to each well (RPMI medium without phenol red, 10% FBS-heat inactivated, 0.04% gentamycin (50 mg/mL). All addition steps are done by using a multidrop dispenser (Thermo Scientific, Erembodegem, Belgium). Next, rgRSV224 virus (MOI=1) diluted in culture medium was added to the plates. rgRSV224 virus is an engineered virus that includes an additional GFP gene (Hallak LK, Spillmann D, Collins PL, Peeples ME. Glycosaminoglycan sulfation requirements for respiratory syncytial virus infection; Journal of virology (2000), 74(22), 10508-13) and was in-licensed from the NIH (Bethesda, MD, USA). Finally, 20 μL of a HeLa cell suspension (3,000 cells/well) were plated. Medium, virus- and mock-infected controls were included in each test. The wells contain 0.05% DMSO per volume. Cells were incubated at 37° C. in a 5% CO2 atmosphere. Three days post-virus exposure, viral replication was quantified by measuring GFP expression in the cells by an in house developed MSM laser microscope (Tibotec, Beerse, Belgium). The EC50 was defined as the 50% inhibitory concentration for GFP expression. In parallel, compounds were incubated for three days in a set of white 384-well microtiter plates (Corning) and the cytotoxicity of compounds in HeLa cells was determined by measuring the ATP content of the cells using the ATPlite kit (Perkin Elmer, Zaventem, Belgium) according to the manufacturer's instructions. The CC50 was defined as the 50% concentration for cytotoxicity.

The next data set has as its system rgRSV224 virus. The data set is described as follows: Antiviral activity: rgRSV224 (GFP) replication in HeLa cells. To be noted: human respiratory syncytial virus, 72 h, read-out: RSV HELA EC50 (μM). Format: cell-based. As to the method:
as §1

In the data set “in vitro”, `C[C@@H]1c2ccccc2CCN1C(=O)c1cc(C2CC2)c2nc(-c3ccc(C4C[C@@H]4C(=O)O)cc3F)n(C)c2c1` (relative stereo) [Compound 14, Cis-2-(4-{4-cyclopropyl-1-methyl-6-[(1R)-1-methyl-1,2,3,4-tetrahydroisoquinoline-2-carbonyl]-1H-1,3-benzodiazol-2-yl}-3-fluorophenyl)cyclopropane-1-carboxylic acid] had a CC50 at 3 days greater than 100 µM. Besides, the EC50 in the data set on rgRSV224 virus worked out at 9.05 µM.
In the same order, the values of `C[C@@H]1c2ccccc2CCN1C(=O)c1cc(C2CC2)c2cc(-c3ccc([C@H]4C[C@@H]4C(=O)O)cc3F)n(C)c2c1` [Compound 9, (1 S,2S)-2-(4-(4-cyclopropyl-1-methyl-6-((R)-1-methyl-1,2,3,4-tetrahydroisoquinoline-2-carbonyl)-1H-indol-2-yl)-3-fluorophenyl)cyclopropane-1-carboxylic acid] are 31.4 µM and 2.31 µM.
For `C[C@@H]1c2ccccc2CCN1C(=O)c1cc(C2CC2)c2nc(-c3ccc(NC(=O)N4CC[C@@H](O)C4)cc3F)sc2c1` [Compound 24, (R)-N-(4-(4-cyclopropyl-6-((R)-1-methyl-1,2,3,4-tetrahydroisoquinoline-2-carbonyl)benzo[d]thiazol-2-yl)-3-fluorophenyl)-3-hydroxypyrrolidine-1-carboxamide], in that order: 54 µM and 0.17 µM.
For `C[C@@H]1c2ccccc2CCN1C(=O)c1cc(C2CC2)c2nc(-c3ccc(NC(=O)N4CC[C@@H](O)C4)cc3F)oc2c1` [Compound 23, (R)-N-(4-(4-cyclopropyl-6-((R)-1-methyl-1,2,3,4-tetrahydroisoquinoline-2-carbonyl)benzo[d]oxazol-2-yl)-3-fluorophenyl)-3-hydroxypyrrolidine-1-carboxamide], in that order: 47.8 µM and 0.05 µM.
Regarding `CCc1cc(C(=O)N2CCc3ccccc3[C@H]2C)nc2oc(-c3ccc(NC(=O)N4CC[C@@H](O)C4)cc3F)nc12` [Compound 1, (R)-N-(4-(7-ethyl-5-((R)-1-methyl-1,2,3,4-tetrahydroisoquinoline-2-carbonyl)oxazolo[5,4-b]pyridin-2-yl)-3-fluorophenyl)-3-hydroxypyrrolidine-1-carboxamide], the 50% cytotoxic concentration (CC50) at 3 days in “in vitro” was greater than 25 µM. Also, in the data set on rgRSV224 virus, the concentration giving a half-maximal response (EC50) is 0.01 µM.
For `C[C@@H]1c2ccccc2CCN1C(=O)c1cc(C2CC2)c2cc(-c3ccc(N4C[C@H](O)[C@@H](O)C4)cc3F)sc2n1` [Compound 4, (4-cyclopropyl-2-(4-((3 S,4S)-3,4-dihydroxypyrrolidin-1-yl)-2-fluorophenyl)thieno[2,3-b]pyridin-6-yl)((R)-1-methyl-3,4-dihydroisoquinolin-2(1H)-yl)methanone], in “in vitro”, it took 14.3 µM to reach half-maximal cytotoxicity (CC50 at 3 days). Besides, the EC50 in the data set with rgRSV224 virus amounted to 0.14 µM.
In the same order, the values of `C[C@@H]1c2ccccc2CCN1C(=O)c1cc(C2CC2)c2nc(-c3ccc(N4CC[C@H](C(N)=O)C4)cc3F)oc2c1` [Compound 22, (3S)-1-(4-{4-Cyclopropyl-6-[(1R)-1-methyl-1,2,3,4-tetrahydroisoquinoline-2-carbonyl]-1,3-benzoxazol-2-yl}-3-fluorophenyl)pyrrolidine-3-carboxamide] are 54.8 µM and 0.01 µM.
As to `C[C@@H]1c2ccccc2CCN1C(=O)c1cc(-c2ccccc2)c2cn(-c3ccc(N4C[C@H](O)[C@@H](O)C4)cc3F)nc2c1` [Compound 25, (2-(4-((3S,4S)-3,4-dihydroxypyrrolidin-1-yl)-2-fluorophenyl)-4-phenyl-2H-indazol-6-yl)((R)-1-methyl-3,4-dihydroisoquinolin-2 (1H)-yl)methanone], it took 19.4 µM to reach half-maximal cytotoxicity in “in vitro” (CC50 at 3 days). Besides, the EC50 in the data set with rgRSV224 virus came out at 0.47 µM.
In the same order, the values of `CCc1cc(C(=O)N2CCc3ccccc3[C@H]2C)cc2cc(-c3ccc(N4C[C@H](O)[C@@H](O)C4)cc3F)oc12` [Compound 3, (2-(4-((3S,4S)-3,4-dihydroxypyrrolidin-1-yl)-2-fluorophenyl)-7-ethylbenzofuran-5-yl)((R)-1-methyl-3,4-dihydroisoquinolin-2 (1H)-yl)methanone] are 24.2 µM and 0.25 µM.
In the data set “in vitro”, `CCc1cc(C(=O)N2CCc3ccccc3[C@H]2C)nc2cc(-c3ccc(NC(=O)N4CC[C@@H](O)C4)cc3F)oc12` [Compound 6, (R)-N-(4-(7-ethyl-5-((R)-1-methyl-1,2,3,4-tetrahydroisoquinoline-2-carbonyl)furo[3,2-b]pyridin-2-yl)-3-fluorophenyl)-3-hydroxypyrrolidine-1-carboxamide] gave a CC50 at 3 days greater than 100 µM. In addition, the EC50 in the data set on rgRSV224 virus stood at 0.07 µM.
For `C[C@@H]1c2ccccc2CCN1C(=O)c1cc(C2CC2)c2nc(-c3ccc(N4CC[C@H](C(=O)O)C4)cc3F)n(C)c2c1` [Compound 16, (3S)-1-(4-{4-Cyclopropyl-1-methyl-6-[(1R)-1-methyl-1,2,3,4-tetrahydroisoquinoline-2-carbonyl]-1H-1,3-benzodiazol-2-yl}-3-fluorophenyl)pyrrolidine-3-carboxylic acid], in that order: 65.3 µM and 0.61 µM.
Take `C[C@@H]1c2ccccc2CCN1C(=O)c1cc(C2CC2)c2nc(-c3ccc(C4C[C@@H]4C(N)=O)cc3F)n(C)c2c1` (relative stereo) [Compound 15, Cis-2-(4-{4-cyclopropyl-1-methyl-6-[(1R)-1-methyl-1,2,3,4-tetrahydroisoquinoline-2-carbonyl]-1H-1,3-benzodiazol-2-yl}-3-fluorophenyl)cyclopropane-1-carboxamide]: the half-maximal cytotoxic concentration (CC50) at 3 days in the data set “in vitro” is 50.4 µM. Besides, in the data set with rgRSV224 virus, the concentration for a half-maximal effect (EC50) turned out to be 0.69 µM.
For `C[C@@H]1c2ccccc2CCN1C(=O)c1cc(C2CC2)c2nc(-c3ccc(C4CC4C(=O)O)cc3F)n(C)c2n1` (stereo in doubt) [Compound 11, Trans 2-(4-{7-Cyclopropyl-3-methyl-5-[(1R)-1-methyl-1,2,3,4-tetrahydroisoquinoline-2-carbonyl]-3H-imidazo[4,5-b]pyridin-2-yl}-3-fluorophenyl)cyclopropane-1-carboxylic acid], in that order: 76.8 µM and 0.52 µM.
For `C[C@@H]1c2ccccc2CCN1C(=O)c1cc(C2CC2)c2cc(-c3ccc([C@H]4C[C@@H]4C(=O)O)cc3F)[nH]c2c1` [Compound 8, (1 S,2S)-2-(4-(4-cyclopropyl-6-((R)-1-methyl-1,2,3,4-tetrahydroisoquinoline-2-carbonyl)-1H-indol-2-yl)-3-fluorophenyl)cyclopropane-1-carboxylic acid], in that order: 20.9 µM and 2.04 µM.
In the same order, the values of `C[C@@H]1c2ccccc2CCN1C(=O)c1cc(C2CC2)c2nc(-c3ccc(N4CC[C@H](C(N)=O)C4)cc3F)n(C)c2c1` [Compound 17, (3S)-1-(4-{4-Cyclopropyl-1-methyl-6-[(1R)-1-methyl-1,2,3,4-tetrahydroisoquinoline-2-carbonyl]-1H-1,3-benzodiazol-2-yl}-3-fluorophenyl)pyrrolidine-3-carboxamide] are 39.6 µM and 0.17 µM.
In the case of `C[C@@H]1c2ccccc2CCN1C(=O)c1cc(C2CC2)c2sc(-c3ccc(N4C[C@H](O)[C@@H](O)C4)cc3F)nc2n1` [Compound 5, (7-cyclopropyl-2-(4-((3 S,4S)-3,4-dihydroxypyrrolidin-1-yl)-2-fluorophenyl)thiazolo[4,5-b]pyridin-5-yl)((R)-1-methyl-3,4-dihydroisoquinolin-2(1H)-yl)methanone], it took 33.3 µM to reach half-maximal cytotoxicity in the data set “in vitro” (CC50 at 3 days). Moreover, the EC50 with rgRSV224 virus was found to be 0.73 µM.
For `C[C@@H]1c2ccccc2CCN1C(=O)c1cc(C2CC2)c2nn(-c3ccc(NC(=O)N4CC[C@H](O)C4)cc3F)cc2c1` [Compound 20, (3S)-N-(4-{7-Cyclopropyl-5-[(1R)-1-methyl-1,2,3,4-tetrahydroisoquinoline-2-carbonyl]-2H-indazol-2-yl}-3-fluorophenyl)-3-hydroxypyrrolidine-1-carboxamide], in that order: 54.4 µM and 0.06 µM.
